The values below are quoted from earlier work in patent publication US20240044899A1, “BIOMARKERS FOR FIMEPINOSTAT THERAPY” (Curis, Inc, priority 2021, published 2024).

The data set has as its system MYC-altered DLBCL/HGBL patients. To be noted: Prospective phase 2, cited from earlier work.

Like-named read-outs stand apart in the source and are kept apart here.

For the compound `O=C(/C=C\n1cnc(-c2cc(C(F)(F)F)cc(C(F)(F)F)c2)n1)NNc1cnccn1` [Selinexor, reference compound], the ORR (MYC IHC >40%, sample size 47) was 13%. Take Tisagenlecleucel: for the setting “DHL, sample size 16”, the CRR is recorded as 25% and the ORR was 50%/.
